Reference: PMC8131206 (Nature biomedical engineering, 2021)
Where no end group is shown, it is not given here.

Legend:
[1] = test system: S. aureus (MS) Newman; conditions: 24 h
[2] = test system: H. influenzae TD-4; conditions: TD-4, 24 h
[3] = test system: P. aeruginosa PAO1; conditions: PAO1, 24 h
[4] = test system: M. smegmatis Mc^2 155; conditions: Mc^2 155, 48 h
[5] = test system: S. mitis NCTC 12261; conditions: NCTC 12261, 24 h
[6] = test system: S. aureus (MS) NRS72; conditions: MS) NRS72, 24 h
[7] = test system: S. aureus (MR) USA300; conditions: USA300, 24 h
[8] = test system: E. faecalis ATCC 29212; conditions: ATCC 29212, 24 h
[9] = test system: A. baumannii 2208; conditions: 2208, 24 h
[10] = test system: S. enterica CDC 6516–60; conditions: CDC 6516–60, 24 h
[11] = test system: K. pneumoniae NCTC 9633; conditions: NCTC 9633, 24 h
[12] = test system: M. tuberculosis H37Ra (attenuated); conditions: 96 h
[13] = test system: E. coli DH5α; conditions: 24 h

| Substance | MIC [1] [µM] | MIC [2] [µM] | MIC [3] [µM] | MIC [4] [µM] | MIC [5] [µM] | MIC [6] [µM] | MIC [7] [µM] | MIC [8] [µM] | MIC [9] [µM] | MIC [10] [µM] | MIC [11] [µM] | MIC [12] [µM] | MIC [13] [µM] |
| --- | --- | --- | --- | --- | --- | --- | --- | --- | --- | --- | --- | --- | --- |
| KRWWKWWRR-NH2 [AMP2] | 40 | 80 | 20 | 20 | >80 | 80 | 80 | >80 | 80 | 80 | 20 | 10 | 80 |
| RRWWRWVVW-NH2 [AMP3] | 20 | – | 80 | 20 | – | 20 | 20 | 80 | 10 | 80 | 2.5 | 20 | >80 |
| WKWLKKWIK-NH2 [AMP1] | 80 | 80 | 10 | 20 | 20 | >80 | >80 | 80 | 25 | 40 | 20 | 20 | >80 |
